Results: US7973061B2, “Anaplastic lymphoma kinase modulators and methods of use” (Exelixis, Inc., priority 2004, dated 2011)

target: T1, ALK (baculovirus expressed human ALK kinase domain F1098-K1410) (Homo sapiens, UniProt Q9UM73); test: biochemical; conditions: 1 μM ATP, 4 μM poly-AEKY, 12 nM ALK, 2 hours at ambient temperature; read-out: ALK IC50
T1 construct: human ALK kinase domain F1098-K1410; made in house
Outline: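 Baculovirus-expressed human ALK kinase domain (F1098-K1410) was run in a luciferase-coupled chemiluminescent format, with ATP near its KM. After 2 h at ambient temperature, remaining ATP was read by luciferase-luciferin luminescence. IC50 came from 10-point dose-response curves fitted to a four-parameter equation with Hill slope.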

T1 sequence (Q9UM73 1098-1410): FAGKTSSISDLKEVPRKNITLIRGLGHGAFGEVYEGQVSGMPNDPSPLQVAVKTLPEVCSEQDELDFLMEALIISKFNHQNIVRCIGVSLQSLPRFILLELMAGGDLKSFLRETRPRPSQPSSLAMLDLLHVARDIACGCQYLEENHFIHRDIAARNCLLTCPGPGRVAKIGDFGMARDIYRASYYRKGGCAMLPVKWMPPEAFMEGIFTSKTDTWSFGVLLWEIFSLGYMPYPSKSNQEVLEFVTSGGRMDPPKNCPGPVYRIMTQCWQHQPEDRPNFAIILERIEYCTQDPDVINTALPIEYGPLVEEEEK

Row | IC50 | SMILES
1 | 500 to 2000 nM | O=C(COc1ccc(OC(F)(F)F)cc1)NCc1nc(C(=O)NCCN2CCCC2)cs1 [Entry 274, N-(2-pyrrolidin-1-ylethyl)-2-({[({4-[(trifluoromethyl)oxy]phenyl}oxy)acetyl]amino}methyl)-1,3-thiazole-4-carboxamide]
2 | 500 to 2000 nM | COCCCNC(=O)c1csc(CNC(=O)COc2ccc(OC(F)(F)F)cc2)n1 [Entry 269, N-[3-(methyloxy)propyl]-2-({[({4-[(trifluoromethyl)oxy]phenyl}oxy)acetyl]amino}methyl)-1,3-thiazole-4-carboxamide]
3 | < 50 nM | C[C@H](CNC(=O)c1csc(CNC(=O)COc2ccc(OC(F)(F)F)cc2)n1)c1ccccc1 [Entry 26, N-[(2S)-2-phenylpropyl]-2-({[({4-[(trifluoromethyl)oxy]phenyl}oxy)acetyl]amino}methyl)-1,3-thiazole-4-carboxamide]
4 | 500 to 2000 nM | O=C(COc1ccc(OC(F)(F)F)cc1)NCc1nc(C(=O)NC2CCCc3ccccc32)co1 (centres unmarked) [Entry 293, N-(1,2,3,4-tetrahydronaphthalen-1-yl)-2-({[({4-[(trifluoromethyl)oxy]phenyl}oxy)acetyl]amino}methyl)-1,3-oxazole-4-carboxamide]
5 | 50 to 500 nM | COc1ccccc1CNC(=O)c1coc(CNC(=O)COc2ccc(OC(F)(F)F)cc2)n1 [Entry 203, N-{[2-(methyloxy)phenyl]methyl}-2-({[({4-[(trifluoromethyl)oxy]phenyl}oxy)acetyl]amino}methyl)-1,3-oxazole-4-carboxamide]
6 | > 2000 nM | CO[C@@H]1[C@@H](C)/C=C(\C)[C@H](OC(N)=O)[C@@H](OC)/C=C\C=C(/C)C(=O)NC2=CC(=O)C=C(C2=O)[C@H](OC)[C@@H](C)C[C@H]1OC [Entry 301, (4E,6Z,8S,9S,10E,12S,13R,14R,16S,17R)-4,10,12,16-tetramethyl-8,13,14,17-tetrakis(methyloxy)-3,20,22-trioxo-2-azabicyclo[16.3.1]docosa-1(21),4,6,10,18-pentaen-9-yl carbamate, reference compound]
7 | 500 to 2000 nM | NC(=O)C1CCN(C(=O)c2csc(CNC(=O)COc3ccc(OC(F)(F)F)cc3)n2)CC1 [Entry 272, 1-{[2-({[({4-[(trifluoromethyl)oxy]phenyl}oxy)acetyl]amino}methyl)-1,3-thiazol-4-yl]carbonyl}piperidine-4-carboxamide]
8 | 500 to 2000 nM | CCCCOc1ccc(NC(=O)NCc2nc(C(=O)NCc3cccc(OC)c3OC)cs2)cc1 [Entry 248, N-{[2,3-bis(methyloxy)phenyl]methyl}-2-{[({[4-(butyloxy)phenyl]amino}carbonyl)amino]methyl}-1,3-thiazole-4-carboxamide]
9 | 50 to 500 nM | CCC(CC)NC(=O)c1csc(CNC(=O)COc2ccc(OC(F)(F)F)cc2)n1 [Entry 171, N-(1-ethylpropyl)-2-({[({4-[(trifluoromethyl)oxy]phenyl}oxy)acetyl]amino}methyl)-1,3-thiazole-4-carboxamide]
10 | 500 to 2000 nM | O=C(COc1ccc(OC(F)(F)F)cc1)NCc1nc(C(=O)NCc2ccc(F)cc2)co1 [Entry 292, N-[(4-fluorophenyl)methyl]-2-({[({4-[(trifluoromethyl)oxy]phenyl}oxy)acetyl]amino}methyl)-1,3-oxazole-4-carboxamide]
11 | 50 to 500 nM | O=C(COc1ccc(OC(F)(F)F)cc1)NCc1nc(C(=O)NCc2ccc(Cl)c(Cl)c2)cs1 [Entry 75, N-[(3,4-dichlorophenyl)methyl]-2-({[({4-[(trifluoromethyl)oxy]phenyl}oxy)acetyl]amino}methyl)-1,3-thiazole-4-carboxamide]
12 | 50 to 500 nM | CC(C)(C)OC(=O)NCCCCCNC(=O)c1csc(CNC(=O)COc2ccc(OC(F)(F)F)cc2)n1 [Entry 123, 1,1-dimethylethyl [5-({[2-({[({4-[(trifluoromethyl)oxy]phenyl}oxy)acetyl]amino}methyl)-1,3-thiazol-4-yl]carbonyl}amino)pentyl]carbamate]
13 | < 50 nM | O=C(COc1ccc(OC(F)(F)F)cc1)NCc1nc(C(=O)NCC2c3ccccc3CCc3ccccc32)cs1 [Entry 4, N-(10,11-dihydro-5H-dibenzo[a,d]cyclohepten-5-ylmethyl)-2-({[({4-[(trifluoromethyl)oxy]phenyl}oxy)acetyl]amino}methyl)-1,3-thiazole-4-carboxamide]
14 | 50 to 500 nM | O=C(COc1ccc(OC(F)(F)F)cc1)NCc1nc(C(=O)NCCc2ccc(Cl)cc2Cl)cs1 [Entry 160, N-[2-(2,4-dichlorophenyl)ethyl]-2-({[({4-[(trifluoromethyl)oxy]phenyl}oxy)acetyl]amino}methyl)-1,3-thiazole-4-carboxamide]
15 | 50 to 500 nM | CC(C)c1ccc(OCC(=O)NCc2nc(C(=O)NCCc3ccccc3F)cs2)cc1 [Entry 55, N-[2-(2-fluorophenyl)ethyl]-2-{[({[4-(1-methylethyl)phenyl]oxy}acetyl)amino]methyl}-1,3-thiazole-4-carboxamide]
16 | < 50 nM | Cc1cccc(CCNC(=O)c2csc(CNC(=O)COc3ccc(OC(F)(F)F)cc3)n2)c1 [Entry 21, N-[2-(3-methylphenyl)ethyl]-2-({[({4-[(trifluoromethyl)oxy]phenyl}oxy)acetyl]amino}methyl)-1,3-thiazole-4-carboxamide]
17 | < 50 nM | COc1ccccc1CNC(=O)c1csc(CNC(=O)COc2ccc(C(C)(C)C)cc2)n1 [Entry 22, 2-{[({[4-(1,1-dimethylethyl)phenyl]oxy}acetyl)amino]methyl}-N-{[2-(methyloxy)phenyl]methyl}-1,3-thiazole-4-carboxamide]
18 | 500 to 2000 nM | COc1ccccc1CNC(=O)c1csc(CNC(=O)C/C=C/c2ccccc2)n1 [Entry 284, N-{[2-(methyloxy)phenyl]methyl}-2-({[(3E)-4-phenylbut-3-enoyl]amino}methyl)-1,3-thiazole-4-carboxamide]
19 | 50 to 500 nM | CCOc1ccc(CCNC(=O)c2csc(CNC(=O)COc3ccc(OC(F)(F)F)cc3)n2)cc1 [Entry 68, N-{2-[4-(ethyloxy)phenyl]ethyl}-2-({[({4-[(trifluoromethyl)oxy]phenyl}oxy)acetyl]amino}methyl)-1,3-thiazole-4-carboxamide]
20 | 500 to 2000 nM | CCOc1cccc(CCNC(=O)c2coc(CNC(=O)COc3ccc(OC(F)(F)F)cc3)n2)c1 [Entry 230, N-{2-[3-(ethyloxy)phenyl]ethyl}-2-({[({4-[(trifluoromethyl)oxy]phenyl}oxy)acetyl]amino}methyl)-1,3-oxazole-4-carboxamide]
21 | 50 to 500 nM | COc1ccccc1CNC(=O)c1csc(CNC(=O)Cc2ccc(C(C)C)cc2)n1 [Entry 192, 2-[({[4-(1-methylethyl)phenyl]acetyl}amino)methyl]-N-{[2-(methyloxy)phenyl]methyl}-1,3-thiazole-4-carboxamide]
22 | 50 to 500 nM | CCC(CC)CNC(=O)c1csc(CNC(=O)COc2ccc(OC(F)(F)F)cc2)n1 [Entry 132, N-(2-ethylbutyl)-2-({[({4-[(trifluoromethyl)oxy]phenyl}oxy)acetyl]amino}methyl)-1,3-thiazole-4-carboxamide]
23 | 50 to 500 nM | O=C(COc1ccc(OC(F)(F)F)cc1)NCc1nc(C(=O)NCc2cccc(F)c2F)cs1 [Entry 116, N-[(2,3-difluorophenyl)methyl]-2-({[({4-[(trifluoromethyl)oxy]phenyl}oxy)acetyl]amino}methyl)-1,3-thiazole-4-carboxamide]
